Data taken from PMC7168933, “Design, Synthesis and Biochemical Evaluation of Novel Ethanoanthracenes and Related Compounds to Target Burkitt’s Lymphoma” (Pharmaceuticals, 2020).

Experiments:
[1] = tested on: DG-75 Burkitt lymphoma cell line (EBV−, chemoresistant); experiment: cells; conditions: Homo sapiens, DG-75, 48 h; for viability at 1 µM: read-out: DG-75 Cell Viability % 1 μM, 1 μM, 48 h; for viability at 10 µM: read-out: DG-75 Cell Viability % 10 μM, 10 μM, 48 h
[2] = tested on: MUTU-1 Burkitt lymphoma cell line (EBV+); experiment: cells; conditions: Mutu-1, 24 h; for viability at 1 µM: read-out: MUTU-1 Cell Viability % 1 μM, 1 μM, 24 h; for viability at 10 µM: read-out: MUTU-1 Cell Viability % 10 μM, 10 μM, 24 h; for IC50: read-out: IC50 MUTU-I 24 h
[3] = tested on: MUTU-1 Burkitt lymphoma cell line (EBV+); conditions: 24 h

| Structure (SMILES) | viability at 1 µM [1] [%] | viability at 10 µM [1] [%] | viability at 1 µM [2] [%] | viability at 10 µM [2] [%] | cell viability in MUTU-I cell line (1 and 10 μM together or concentration not stated) [3] | melting point [°C] | IC50 [2] [nM] | MUTU-1 Cell Viability % 1 μM [3] [%] | MUTU-1 Cell Viability % 10 μM ([3]; 10 μM) [%] |
| --- | --- | --- | --- | --- | --- | --- | --- | --- | --- |
| O=C1OC(=O)C2C1C1c3ccccc3C2(/C=C/[N+](=O)[O-])c2ccccc21 (stereo not shown) [Compound 13a, (E)-9-(2-Nitrovinyl)-9,10-dihydro-9,10-[3,4]furanoanthracene-12,14-dione] | 78.5 | 62.2 | 24.4 | 12.5 | 7–24% | 244 to 245 | – | – | – |
| O=[N+]([O-])C=CC12c3ccccc3C(Cl)(c3ccccc31)c1ccccc12 [Compound 20d, (E)-9-Chloro-10-(2-nitrovinyl)-9,10-dihydro-9,10-[1,2]benzenoanthracene] | 46 | 0 | 0.95 | 0.34 | < 6% | 259 to 261 | 280 | – | – |
| O=C1C2C3c4ccccc4C(/C=N/O)(c4ccccc43)C2C(=O)N1c1ccccc1 (stereo not shown) [Compound 23k, (E)-12,14-Dioxo-13-phenyl-9,10-[3,4]epipyrroloanthracene-9(10H)-carbaldehyde oxime] | 81.7 | 74.1 | 96.9 | 83.9 | – | 238 to 242 | – | – | – |
| O=C1C2C3c4ccccc4C(/C=C/[N+](=O)[O-])(c4ccccc43)C2C(=O)N1c1ccc(Br)cc1 (stereo not shown) [Compound 16g, (E)-13-(4-Bromophenyl)-9-(2-nitrovinyl)-9,10-dihydro-9,10-[3,4]epipyrroloanthracene-12,14-dione] | 28.2 | 0.55 | 2.1 | 1.1 | – | 267 to 268 | 220 | – | – |
| CN1C(=O)C2C3c4ccccc4C(/C=C/[N+](=O)[O-])(c4ccccc43)C2C1=O (stereo not shown) [Compound 13m, (E)-13-Methyl-9-(2-nitrovinyl)-9,10-dihydro-9,10-[3,4]epipyrroloanthracene-12,14-dione] | 38.1 | 0.93 | – | 7.4 | – | 267 to 268 | 320 | 0 | – |
| CC/C(=C\C12c3ccccc3C(c3ccccc31)C1C(=O)N(Cc3cc(OC)c(OC)c(OC)c3)C(=O)C12)[N+](=O)[O-] (stereo not shown) [Compound 17m, (E)-9-(2-Nitrobut-1-en-1-yl)-13-(3,4,5-trimethoxybenzyl)-9,10-dihydro-9,10-[3,4]epipyrroloanthracene-12,14-dione] | 82.2 | 77.8 | 82.2 | 66.8 | – | 224 to 229 | – | – | – |
| O=C1NC(=O)C2C3c4ccccc4C(c4ccccc43)C12 (stereo not shown) [Compound 21b] | 82 | 74.5 | 104 | 92.8 | – | 299 to 300 | – | – | – |
| O=C(c1ccccc1)c1ccc(N2C(=O)C3C4c5ccccc5C(/C=C/[N+](=O)[O-])(c5ccccc54)C3C2=O)cc1 (stereo not shown) [Compound 16i, (E)-13-(4-Benzoylphenyl)-9-(2-nitrovinyl)-9,10-dihydro-9,10-[3,4]epipyrroloanthracene-12,14-dione] | 77.5 | 2.7 | 2 | 1.2 | – | 232 to 234 | 240 | – | – |
| O=C1C2C3c4ccccc4C(/C=C/[N+](=O)[O-])(c4ccccc43)C2C(=O)N1Cc1ccccc1 (stereo not shown) [Compound 17i, (E)-13-Benzyl-9-(2-nitrovinyl)-9,10-dihydro-9,10-[3,4]epipyrroloanthracene-12,14-dione] | 93.1 | 0.67 | 74.9 | 0.86 | – | 232 to 236 | – | – | – |
| O=c1n(-c2ccccc2)c(=O)n2n1C1c3ccccc3C2(/C=C/[N+](=O)[O-])c2ccccc21 [Compound 18, (E)-9-(2-Nitrovinyl)-14-phenyl-9,10-dihydro-9,10-[1,2]epitriazoloanthracene-13,15-dione] | 87.3 | 13.2 | 75 | 13.2 | – | 168 to 169 | – | – | – |
| CCC(=CC12c3ccccc3C(c3ccccc31)c1ccccc12)[N+](=O)[O-] [Compound 20c, (E)-9-(2-Nitrobut-1-en-1-yl)-9,10-dihydro-9,10-[1,2]benzenoanthracene] | 95.1 | 84.8 | 106 | 102 | – | 210 to 211 | – | – | – |
| O=C1OC(=O)C2C1C1(Cl)c3ccccc3C2(/C=C/[N+](=O)[O-])c2ccccc21 (stereo not shown) [Compound 13d, (E)-9-Chloro-10-(2-nitrovinyl)-9,10-dihydro-9,10-[3,4]furanoanthracene-12,14-dione] | 98.7 | 102 | 35.6 | 43.5 | – | 275 to 277 | – | – | – |
| COc1cc(OC)cc(N2C(=O)C3C4c5ccccc5C(/C=C/[N+](=O)[O-])(c5ccccc54)C3C2=O)c1 (stereo not shown) [Compound 16j, (E)-13-(3,5-Dimethoxyphenyl)-9-(2-nitrovinyl)-9,10-dihydro-9,10-[3,4]epipyrroloanthracene-12,14-dione] | 33.5 | 0.16 | 4.2 | 5.4 | – | 268 to 271 | 260 | – | – |
| C/C(=C\C12c3ccccc3C(Cl)(c3ccccc31)C1C(=O)OC(=O)C12)[N+](=O)[O-] (stereo not shown) [Compound 13e, (E)-9-Chloro-10-(2-nitroprop-1-en-1-yl)-9,10-dihydro-9,10-[3,4]furanoanthracene-12,14-dione] | 78.2 | 98.2 | 83.3 | 101 | – | 270 to 272 | – | – | – |
| CC/C(=C\C12c3ccccc3C(Cl)(c3ccccc31)C1C(=O)OC(=O)C12)[N+](=O)[O-] (stereo not shown) [Compound 13f, (E)-9-Chloro-10-(2-nitrobut-1-en-1-yl)-9,10-dihydro-9,10-[3,4]furanoanthracene-12,14-dione] | 79.9 | 95.1 | 85.3 | 91.6 | – | 259 to 263 | – | – | – |
| O=CC12c3ccccc3C(c3ccccc31)c1ccccc12 [Compound 20f] | 72.9 | 81.7 | 97.9 | < 5 | – | – | – | – | 5.4 |
| O=C1C2C3c4ccccc4C(/C=C/[N+](=O)[O-])(c4ccccc43)C2C(=O)N1CCc1ccccc1 (stereo not shown) [Compound 17n] | 19.9 | 0.07 | 2.8 | 2 | – | 152 to 156 | 260 | – | – |
| O=[N+]([O-])/C=C/C12c3ccccc3C(c3ccccc31)c1ccccc12 [Compound 20a, (E)-9-(2-nitrovinyl)-9,10-dihydro-9,10-[1,2]benzenoanthracene] | 90.2 | 0.091 | 6 | 1.3 | < 6% | – | – | – | – |
| CC/C(=C\C12c3ccccc3C(c3ccccc31)C1C(=O)N(c3ccccc3)C(=O)C12)[N+](=O)[O-] (stereo not shown) [Compound 17b, (E)-9-(2-Nitrobut-1-en-1-yl)-13-phenyl-9,10-dihydro-9,10-[3,4]epipyrroloanthracene-12,14-dione] | 96.4 | 99.9 | 92.6 | 83.4 | – | 259 to 263 | – | – | – |
| N/N=C/C12c3ccccc3C(c3ccccc31)C1C(=O)NC(=O)C12 (stereo not shown) [Compound 23g, (E)-9-(Hydrazonomethyl)-9,10-dihydro-9,10-[3,4]epipyrroloanthracene-12,14-dione] | 78.1 | 55 | 95.2 | 101 | – | 245 to 247 | – | – | – |
| CC(=CC12c3ccccc3C(c3ccccc31)c1ccccc12)[N+](=O)[O-] [Compound 20b, (E)-9-(2-Nitroprop-1-en-1-yl)-9,10-dihydro-9,10-[1,2]benzenoanthracene] | 86.4 | 100 | 95.2 | 102 | – | 226 to 228 | – | – | – |
| O=C1C2C3c4ccccc4C(/C=C/[N+](=O)[O-])(c4ccccc43)C2C(=O)N1CO (stereo not shown) [Compound 13n, (E)-13-(Hydroxymethyl)-9-(2-nitrovinyl)-9,10-dihydro-9,10-[3,4]epipyrroloanthracene-12,14-dione] | 74.6 | 20.4 | – | 1.8 | – | 230 to 232 | – | 0 | – |
| C/C(=C\C12c3ccccc3C(c3ccccc31)C1C(=O)NC(=O)C12)[N+](=O)[O-] (stereo not shown) [Compound 13h, (E)-9-(2-Nitroprop-1-en-1-yl)-9,10-dihydro-9,10-[3,4]epipyrroloanthracene-12,14-dione] | 106 | 101 | 99.7 | 82.6 | – | 296 to 300 | – | – | – |
| O=C1C2C3c4ccccc4C(c4ccccc43)C2C(=O)N1c1ccccc1 (stereo not shown) [Compound 21c] | 85.7 | 71.3 | 93 | 91.2 | – | 227 to 229 | – | – | – |
| OCC12c3ccccc3C(c3ccccc31)c1ccccc12 [Compound 20g] | 97 | 68.7 | 101 | 103 | inactive | – | – | – | – |
